This is an account of results in article PMC10518340, “Secreted LRPAP1 binds and triggers IFNAR1 degradation to facilitate virus evasion from cellular innate immunity” (Signal Transduction and Targeted Therapy, 2023).

“Also recorded” adds a separate entry of the source.

For assay [1], the system named is IFNAR1. Description: Effect of lysosome / proteasome inhibitors on LRPAP1-induced IFNAR1 reduction, HEK-293T cells. Particulars: 4 h, MA 20 mM; for effect on LRPAP1-induced IFNAR1 reduction: bafilomycin 1 μM, MG132 40 μM, leupeptin 50 μM.
Assay [2] has as its system extracellular domain of IFNAR1. Description: Pull-down / co-immunoprecipitation of LRPAP1 with IFNAR1. The assay is classed as binding. Particulars: Residues 1–436. The method, then:
The interaction of LRPAP1, LRP1 and IFNAR1 was examined by immunoprecipitation using a protocol described as followed. HEK293T cells were cultured at around 90% confluence in a 100 mm tissue culture dish. Cells were washed with 10 ml of PBS and harvested in 0.5 ml of ice-cold lysis buffer ([…], pH 7.4, 1% SDS, 1% NP-40) and Protease Cocktail (Roche) and PhoSTOP (Roche). The total extract was pre-cleared with 10 μg normal rabbit IgG (Cell signaling, 2729 S) and 20 μl of protein A/G plus-agarose (Santa Cruz Biotechnology) at 4 °C on a rotor for 1 h. After gently removed protein A/G agarose beads by centrifugation at 500 rcf for 2 min, 0.2 mg of total extract was immunoprecipitated with the indicated antibodies overnight at 4 °C on a rotor. Approximately 20 μl of protein A/G plus-agarose (Santa Cruz Biotechnology) was added at 4 °C for one hour. Then, the beads were washed three times with washing buffer (lysis buffer contained 0.1% NP-40). The pellet was suspended with 40 μl PBS and 10 μl of 5× SDS-PAGE loading buffer and the samples were boiled for 10 min.
The interaction of LRPAP1, LRP1 and IFNAR1 was examined by immunoprecipitation using a protocol described as followed. HEK293T cells were cultured at around 90% confluence in a 100 mm tissue culture dish. […]

In another assay the test system is HCoV-OC43. The experiment in a line: HCoV-OC43 infection of RD cells (viral RNA, TCID50, CPE). Particulars: pre-treated 1 h (or siRNA 24 h), MOI 1, 72 h.
The test system of assay [3] is EV71. Description: EV71 entry and uncoating, HEK-293T cells. The assay is classed as cell-based. The note with it: pre-treated on ice 1 h, EV71 MOI 50, within 1 h.
In assay [4] the test system is IFNAR1. The experiment in a line: IFNAR1 phosphorylation immunoblot, HEK-293T cells. It is filed as cell-based, human. Particulars: extracellular rLRPAP1, 1 h.
In assay [5] the test system is EV71. The experiment in a line: EV71 infection of newborn C57BL/6 mice. The assay is classed as in vivo. The method, then: The C57BL/6 mice were purchased and were bred in the City University of Hong Kong. All animal experiment protocols were approved by the Ethics Committee of City University of Hong Kong with the license from Department of Health, Hong Kong (18-69 in DH/SHS/8/2/5 Pt.3). The studies were performed in accordance with the approved protocol. […] The neurological status and behavior of each mouse was measured every day. On day 7, mice were sacrificed, and the intestine and blood were collected for viral testing.

The subject of assay [6] is EV71. The experiment in a line: EV71 infection of RD cells (viral RNA, titer, viral protein, CPE).
The subject of assay [7] is IFNAR1. The experiment in a line: Flow cytometry, cell surface IFNAR1 on 4T1 cells. The assay is classed as cell-based, murine. The note with it: live 4T1 cells, 200 nM. The method, then: The surface IFNAR1 was monitored by flow cytometry as previous described.[60] Briefly, murine breast cancer cells (4T1) were stained with APC-conjugated IFNAR1 (Biolegend #127314, 1:100) on ice for 30 min. […] Fluorescence-activated cells were then sorted and analyzed by Beckman Coulter CytoFLEX S Flow cytometer ([…]). The result was analyzed by FlowJo (version 10.5.3).
The surface IFNAR1 was monitored by flow cytometry as previous described^63. Briefly, murine breast cancer cells (4T1) were stained with APC-conjugated IFNAR1 (Biolegend #127314, 1:100) on ice for 30 min. […] Fluorescence-activated cells were then sorted and analyzed by Beckman Coulter CytoFLEX S Flow cytometer ([…]). The result was analyzed by FlowJo (version 10.5.3).

Assay [8] has as its system IFNAR1. Description: IFNAR1 and LRPAP1 in membrane and cytosol fractions, HEK-293T cells. The assay is classed as cell-based, human. Particulars: 200 nM, 1 min to 10 min. The method, then:
Then proteins were subjected to Western blotting. […] Hes1 (Abcam, ab71559).
(§1) Tissues were washed twice with PBS and made into homogenate by 2 ml grinder. Membrane proteins were separated from cytosol protein extraction by using the protocol of membrane protein extraction kit (89842, Thermo).

For assay [9], the system named is IFNAR1. The experiment in a line: LRPAP1 stimulated mouse brain ex vivo, membrane IFNAR1 immunoblot. On the set-up: species or system C57BL/6 mouse. Particulars: 200 nM, ACSF, 1 h. The method, then:
as §1

For assay [10], the system named is IFNAR1. Description: IFNAR1 protein level, immunoblot, HEK-293T cells. The assay is classed as cell-based, human.
Assay [11] concerns IFNAR1. Description: IFNAR1 protein level, immunoblot / immunofluorescence, RD cells. The note with it: RD cells, 200 nM, 1 h. It is filed as cell-based.
Assay [12] deals with IFNAR1. The experiment in a line: IFNAR1 endocytosis, EEA1 immunofluorescence, HEK-293T cells. Particulars: 200 nM, 1 h. The assay is classed as cell-based, human. The method, then: Cellular expression of IFNAR1, viral protein VP1 and LRPAP1 at HEK-293T cells with and without the stimulation of EV71, the recombinant LRPAP1, and overexpression of LRPAP1 or 2A, were examined by the following protocol. Briefly, HEK-293T cells were washed twice with PBS and fixed with 4% paraformaldehyde for 20 min. Afterwards, cells were incubated with blocking buffer (10% (v/v) FBS, 1% (v/v) BSA, and 0.1% (v/v) Triton in PBS) for 2 h. Cells were then incubated with specific antibodies. […] After washing with PBST (PBS + 0.1% Tween-20) for 3 times, cells were labeled with Alexa Fluor 488 (green), or Alexa Fluor 594 (red) conjugated secondary antibody (dilution of 1:1000) (Life Technologies) for 1 h at 4 °C with shaking. After three times washing with PBST (PBS + 0.1% Tween-20), cells were followed by nuclei staining with DAPI (0.5 μg/ml) for 5 min at room temperature. Finally, cells were mounted with Prolong Gold Antifade Reagent on slides. Images were taken by Carl Zeiss LSM 880 confocal microscope using 63× oil objective and analyzed by ZEN software.

The test system of the next assay is LRP1. The assay is classed as cell-based, human.
Assay [13] relates to LRPAP1. It is filed as cell-based, human.
Assay [14] deals with LRPAP1. The assay is classed as cell-based, human. This is another data set of the same source.

`CO/C1=C\C(C)=C\[C@@H](C)[C@@H](O)[C@@H](C)C/C(C)=C/C=C/[C@H](OC)[C@@H]([C@@H](C)[C@@H](O)[C@H](C)[C@@]2(O)C[C@@H](O)[C@H](C)[C@@H](C(C)C)O2)OC1=O` [bafilomycin]: in the assay with IFNAR1 [1], the “effect on LRPAP1-induced IFNAR1 reduction” value was “prohibited by lysosome inhibitors”.
With `CN` [methylamine], the “effect on LRPAP1-induced IFNAR1 reduction” value in the assay on IFNAR1 [1] was “prohibited by lysosome inhibitors”. Besides, the “protection of IFNAR1 from degradation” value in the assay on IFNAR1 [1] (ubiquitin, LRPAP1, IFNAR1 expressed) is recorded as “IFNAR1 was protected from degradation”.
In the case of “rLRPAP1: recombinant LRPAP1 from pQTEV-LRPAP1 expressed in E. coli”, the “direct binding to IFNAR1 extracellular domain (pull-down)” value in assay [2] is “directly bound with the extracellular domain of IFNAR1”. In the assay with HCoV-OC43, the “HCoV-OC43 intracellular RNA level” value is “increased significantly” and the “HCoV-OC43 viral titer (TCID50)” value is “increased significantly”. Moreover, the “EV71 entry and uncoating rate” value in the assay with EV71 [3] was “promoted EV71 entry and uncoating rate within 1 h”. In addition, in the assay on IFNAR1 [4], the “phosphorylated IFNAR1” value is reported as “promoted in an extracellular rLRPAP1 dose-dependent manner”. Also, in the assay on EV71 [5] (co-injected EV71 and rLRPAP1, 7 days), the survival rate was 75%. The “mice with severe neurological deficits” value in the assay on EV71 [5] (co-injected EV71 and rLRPAP1, after two injections (Day 3)) was determined as 50%. Further, the “physical condition of mice” value with EV71 [5] (co-injected EV71 and rLRPAP1, i.p. twice per week) is given as “severe physical disharmony”. Moreover, in the assay with EV71 [5] (i.p. EV71 (2*10^8 PFU) + rLRPAP1 (200 nM) twice per week), the “EV71 infection and disease in mice” value was “potently enhanced EV71 infection and exacerbated the disease in newborn C57BL/6 mice”. For the same compound, in the assay with EV71 [6] (RD cells, 9 h, plasmid, recombinant protein or peptide pre-treatment, viral RNA / titer), the EV71 infection result is “significantly promoted EV71 infection”. For the same compound, the “EV71 induced CPE” value in the assay on EV71 [6] (antibody added 3 h post infection (MOI 10, 6 h), rLRPAP1 200 nM pre-treatment 1 h) was “significantly promoted EV71 infection and EV71-induced CPE”. Besides, the “cell surface IFNAR1” value in the assay on IFNAR1 [7] is on record as “significantly reduced cell surface IFNAR1”. In the assay with IFNAR1 [8], the “IFNAR1 level in membrane / cytosol fractions” value is reported as “IFNAR1 consistently decreased with time” and the “rLRPAP1 enrichment in membrane fractions” value is “gradually enriched in the membrane fractions”. The “membrane IFNAR1 in mouse brain” value with IFNAR1 [9] is “significantly lower”. Besides, in the assay with IFNAR1 [10] (50 nM, 1 h), the “IFNAR1 level on rLRPAP1 treatment” value is given as “marginal detectable level”. Besides, the “IFNAR1 level on rLRPAP1 treatment” value with IFNAR1 [10] (200 nM, 1 h) is given as “undetectable level”. In addition, the “IFNAR1 level on rLRPAP1 treatment” value in the assay with IFNAR1 [10] (within 15 min, dose-dependent) was “rapidly decreased within 15 min in a rLRPAP1 dose-dependent manner”. In the assay on IFNAR1 [11], the “IFNAR1 in the cell membrane (immunofluorescence)” value is recorded as “sharply decreased in the cell membrane”. In the assay with IFNAR1 [12], the “IFNAR1 endocytosis (EEA1 level)” value is on record as “increased level of early endosome marker (EEA1)”.
On to “SARS-CoV-2 3CL^pro: SARS-CoV-2 main protease, transfected pCMV-SARS-CoV-2-3CL”, for which, in the assay on LRP1, the LRP1 protein level entry was “decreased protein level”. For the same compound, in the assay on LRPAP1 [13], the “extracellular LRPAP1 level” value is recorded as “extracellular LRPAP1 increase”. In the assay with IFNAR1 [10], the IFNAR1 level entry is “decreased IFNAR1 level; also recorded: expression of IFNAR1 decreased”. For the same compound, the LRPAP1 expression entry in the assay on LRPAP1 [14] is on record as “increased LRPAP1 expression”.
